We go through two compounds from patent US8653117B2, “Composition comprising at least one oxazoline to inhibit migration of langerhans cells, and uses thereof” (Laboratoires Expanscience, priority 2001, dated 2014).

In general, inhibition refers to the drop in the measured response relative to a control, in per cent.

Experiment [1] relates to Langerhans cells (LC) and dendritic cells (DC) in mice. In words: Migration of dendritic cells from ear skin to draining ganglions in mice sensitized by FITC hapten. The settings on record: for Migration inhibition in %: FITC hapten; for migration of DCs to LGs (in words): OX100 alone, mice sensitized by FITC hapten. It is filed as in vivo. The source says: FITC (Fluoresceine isothiocyanate, Sigma, St Louis, Mo.) was extemporaneously diluted in an acetone mix (dibutylphthalate (1:1)).
Oxazoline OX100 and LU105 (LU 105 is an MMP inhibitor, corresponding to a peptide extract of white lupin marketed by the Expanscience Company under the brand name Actimp 193®) were supplied by “Laboratoires Expanscience” and formulated alone or association with each other in an inert vehicle compatible with a topical application (oxazoline OX100 (0.1%) LU105 (2%)). The different formulations were applied on the ears of mice twice per day for 4 consecutive days. 1.5% of FITC was applied on both ears (one treated and the other not treated (Control)) three hours after the last application.
The effect of the two molecules was evaluated in vivo in mice. 1.5% FITC (2×5 μl) was applied on the skin of both ears. 24 h later, the mice were sacrificed and a cellular suspension was prepared from auricular and cervical ganglions (draining ganglions, hereinafter denoted GL) or from the poplital ganglions (non-draining ganglions, negative control). The tissues were cut and cells separated by filtration (100 μm filter, Falcon; Becton Dickinson) and then washed. The cells were then centrifuged for 10 minutes at 600×g (m×s^−2) on a metrizamide gradient (14.5% in RPMI 1640; 7.5% SVF). The interface cells were retrieved, rinsed and then marked with an anti-CDS86 PE-conjugated, biot-MHC CLII mAbs AC plus streptavidine-Cya (PharMingen) and analyzed by flux cytometry. Only the FITC^+, PE^+ and Cya^+ cells are counted since they represent the population of cells that migrated from the skin to GLs following the application of hapten.
FITC (Fluoresceine isothiocyanate, Sigma, St. Louis, Mo.) was diluted extemporaneously in a mixture of acetone and dibutylphthalate (1:1).
Oxazoline OX100 and AK100 (described above) were supplied by “Laboratoires Expanscience” and formulated alone or in association in an inert vehicle compatible with a topical application [OX100 (0.05%) AK100 (0.05%)]. The different formulations were applied on the ears of mice twice per day for 4 consecutive days. Three hours after the last application, 1.5% of FITC was applied on both ears (one treated and the other not treated (Control)).

Experiment [2] has as its system Langerhans cells freshly isolated from human skin. In words: Migration of Langerhans cells freshly isolated from human skin, sensitized by DNSB, two-compartment Matrigel chamber. It is filed as cell-based. The procedure: Epidermal cell suspensions were obtained by enzymatic treatment (0.05% trypsine for 18 h at +4° C.) of fragments of normal human skin taken from plastic surgery. The suspensions obtained contain an average of 2 to 4% of LC. Obtaining suspensions containing an average of 70% of LC is based on the principle of centrifuging on density gradient (Lymphoprep™) and elimination of keratinocytes.
The basic medium chosen for the entire study was PRMI 1640 (Gibco BRL, France). The OX100 molecule supplied by Pharmascience, with a concentration of 10^−2 M in solution in DMSO (Dimethyl Sulfoxide) was diluted in RPMI-1640 and tested at 1 μM.
The sensitizing agent was DNSB (Sigma Aldrich), a soluble form of DNCB (dinitro-chloro-benzene) solubilized in RPMI-BSA and used at a concentration of 50 μM.
A culture chamber system with two compartments (Falcon, Becton Dickinson, France) was used. The upper compartment is separated from the lower compartment by a membrane with 8 μm porosity, on which 50 μg/cm^2 Matrigel was deposited. […] After 18 h incubation at 37° C., the number of living cells that passed through the Matrigel and that are located in the lower compartment is counted under a microscope (the LCs are easily identifiable by their dendritic form). […]

The test system of experiment [3] is dendritic cells generated in vitro from CD34+ precursors derived from blood from the umbilical cord. Kind of experiment: Migration of dendritic cells generated in vitro from CD34+ precursors of umbilical cord blood, activated by hapten BB. As to conditions: for inhibition at 1 µM: Dendritic cell, hapten BB; for Percentage of dendritic cells generated in vitro that migrated: BB + OX100 (1 μM). It counts as cell-based. As to the method:
Mononucleated cells were obtained from blood from the umbilical cord of healthy donors by centrifuging on Ficoll. The CD34+ cells were then purified by immunoselection using a specific antibody and magnetic balls (Miltenyi Biotech, Germany). The CD34+ cells were cultivated in the presence of GM-CSF (100 ng/ml), TNF-α (2.5 ng/ml) in RPMI to which 10% calf fetus serum was added for 5 days. TGF-β1, a factor that encourages differentiation of cells to the Langerhans cells […], was added on the 5th day of culture.
Preparation of Media (Ditto Example 2).
Cells were treated by hapten BB on the 7th day (Brandowski base, 1.17 μg/ml) for 24 h, and were then subjected to the migration test.
Migration of LCs (Ditto Example 2).

With `CCCCCCCCCCCC(=O)NC(C)(C)CO` [AK100], the “Migration inhibition in %” value in experiment [1] (Example 5, AK100 0.05% topical on ears twice per day for 4 days) was found to be 15%.

As to `CCCCCCCCCCCC1=NC(C)(C)CO1` [OX100, 2-undecyl-4,4-dimethyl-1,3-oxazoline], the “migration of LCs induced by DNSB (in words)” value in experiment [2] (1 μM) was “significantly inhibits”. Also, the LC migration index in experiment [2] (DNSB + OX100 (1 μM), 18 h, control cells set to 1, DNSB alone 2.55) worked out at 0.98. Also, in experiment [3] (1 μM), the “migration of dendritic cells generated in vitro and activated by hapten BB (in words)” value is recorded as “significantly inhibits”. Moreover, the inhibition at 1 µM is 29% in experiment [3] (experiment 1, 1 μM) and 15% in experiment [3] (experiment 2, 1 μM). For the same compound, the “Percentage of dendritic cells generated in vitro that migrated” value is 12% in experiment [3] (Experiment 1, BB alone 17) and 20.3% in experiment [3] (Experiment 2, BB alone 24). Also, the “Migration inhibition in %” value in experiment [1] (Example 4, OX100 0.1% topical on ears twice per day for 4 days) was determined as 30%; in experiment [1] (Example 5, OX100 0.05% topical on ears twice per day for 4 days), 15%. The “migration of DCs to LGs (in words)” value in experiment [1] (Example 4) and in experiment [1] (Example 5) was “significantly inhibits” in each case.
